What was measured:
Assay in all cases: relative viability (nuclei count vs DMSO), 5 days (fraction); higher = more cells survive
[1] = compound: CC1=CC(=C(N1C2=CC=C(C=C2)Cl)C)C(=O)CN3CCCCC3 [IU1-47] + N=C(N)NC(=N)NCCc1ccccc1 [Phenformin] (partner 250 µM)
Procedure, shortened: (§1)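 Lung cancer cell lines in 1536-well plates got either a single drug or a fixed anchor-drug dose together with five library-drug doses (not always all listed) in √10 steps, by pin tool, on the day after seeding. Nuclei were counted after 5 days, and relative viability is the treated-to-vehicle ratio of nuclei counts. Values are medians of duplicate plates.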

[2] = compound: Cc1nc(C(=O)NCC(=O)O)c(O)c2ccc(Oc3ccccc3)cc12 [FG-4592] + CC(=O)Nc1cccc(-n2c(=O)n(C3CC3)c(=O)c3c(Nc4ccc(I)cc4F)n(C)c(=O)c(C)c32)c1 [Trametinib] (partner 0.02 µM)
Procedure, shortened: as §1

[3] = compound: Cc1nc(C(=O)NCC(=O)O)c(O)c2ccc(Oc3ccccc3)cc12 [FG-4592] + CS(=O)(=O)N1CCN(Cc2cc3nc(-c4cccc5[nH]ncc45)nc(N4CCOCC4)c3s2)CC1 [Pictilisib] (partner 1 µM)
Procedure, shortened: as §1

[4] = compound: Cc1nc(C(=O)NCC(=O)O)c(O)c2ccc(Oc3ccccc3)cc12 [FG-4592] + O=C(CCCCCCC(=O)Nc1ccccc1)NO [Vorinostat] (partner 1 µM)
Procedure, shortened: as §1

| Cell Line | relative viability ([1]; first compound 0.08 µM) | relative viability ([1]; first compound 0.253 µM) | relative viability ([1]; first compound 0.8 µM) | relative viability ([1]; first compound 2.53 µM) | relative viability ([1]; first compound 8 µM) | relative viability ([2]; first compound 0.08 µM) | relative viability ([2]; first compound 0.253 µM) | relative viability ([2]; first compound 0.8 µM) | relative viability ([2]; first compound 2.53 µM) | relative viability ([2]; first compound 8 µM) | relative viability ([3]; first compound 0.08 µM) | relative viability ([3]; first compound 0.253 µM) | relative viability ([3]; first compound 0.8 µM) | relative viability ([3]; first compound 2.53 µM) | relative viability ([3]; first compound 8 µM) | relative viability ([4]; first compound 0.08 µM) | relative viability ([4]; first compound 0.253 µM) | relative viability ([4]; first compound 0.8 µM) | relative viability ([4]; first compound 2.53 µM) | relative viability ([4]; first compound 8 µM) |
| --- | --- | --- | --- | --- | --- | --- | --- | --- | --- | --- | --- | --- | --- | --- | --- | --- | --- | --- | --- | --- |
| NCI-H2170 | 0.48 | 0.435 | 0.389 | 0.414 | 0.403 | 0.874 | 0.886 | 0.858 | 0.946 | 0.637 | 0.348 | 0.28 | 0.274 | 0.359 | 0.275 | 0.825 | 0.747 | 0.627 | 0.785 | 0.608 |
| NCI-H2228 | 0.413 | 0.434 | 0.315 | 0.32 | 0.262 | 0.497 | 0.503 | 0.494 | 0.406 | 0.208 | 0.423 | 0.36 | 0.248 | 0.45 | 0.284 | 0.592 | 0.408 | 0.77 | 0.583 | 0.449 |
| NCI-H2347 | 0.387 | 0.413 | 0.336 | 0.496 | 0.345 | 0.315 | 0.323 | 0.267 | 0.326 | 0.28 | 0.0319 | 0.633 | 0.434 | 0.567 | 0.562 | 0.519 | 0.421 | 0.52 | 0.41 | 0.585 |
| NCI-H2405 | 0.404 | 0.415 | 0.386 | 0.371 | 0.365 | 0.548 | 0.57 | 0.507 | 0.587 | 0.411 | – | 0.266 | 0.348 | 0.419 | 0.427 | 0.767 | 0.906 | 0.92 | 0.942 | 0.961 |
| NCI-H3122 | 0.398 | 0.373 | 0.366 | 0.372 | 0.347 | 0.19 | 0.244 | 0.196 | 0.264 | 0.119 | 0.735 | 0.57 | 0.511 | 0.583 | 0.605 | 0.997 | 0.906 | 0.975 | 0.975 | 0.592 |
| PC-3 [JPC-3] | 0.498 | 0.463 | 0.44 | 0.496 | 0.429 | 0.773 | 0.601 | – | 0.72 | 0.844 | 0.717 | 0.7 | 0.59 | 0.764 | 0.791 | 0.705 | 0.797 | – | 0.853 | 0.823 |
| PC-14 | 0.686 | 0.611 | 0.633 | 0.664 | 0.406 | 0.708 | 0.717 | 0.71 | 0.833 | 0.496 | 0.681 | 0.752 | 0.756 | 0.624 | 0.73 | 0.785 | 0.738 | 0.814 | 0.694 | 0.615 |
| RERF-LC-KJ | 0.415 | 0.423 | 0.421 | 0.493 | 0.411 | 0.841 | 0.848 | 0.763 | 0.876 | 0.857 | 0.476 | 0.539 | 0.552 | 0.574 | 0.477 | 0.672 | 0.629 | 0.705 | 0.486 | 0.701 |
| SK-LU-1 | 0.574 | 0.507 | 0.487 | 0.581 | 0.419 | 0.402 | 0.395 | 0.461 | 0.422 | 0.379 | 0.436 | 0.418 | 0.582 | 0.55 | 0.428 | 0.862 | 0.505 | 0.799 | 0.845 | 0.811 |
| SK-MES-1 | 0.729 | 0.76 | 0.66 | 0.662 | 0.575 | 0.604 | 0.515 | 0.521 | 0.623 | 0.571 | 0.358 | 0.361 | 0.318 | 0.367 | 0.383 | 1.13 | 0.969 | 1.02 | 0.947 | 1.02 |
| SW 1573 | 0.394 | 0.353 | 0.367 | 0.421 | 0.382 | 0.611 | 0.62 | 0.616 | 0.531 | 0.391 | 0.504 | 0.402 | 0.443 | 0.56 | 0.484 | 0.708 | 0.965 | 0.604 | 0.543 | 0.494 |
| UMC-11 | 0.315 | 0.326 | 0.322 | 0.349 | 0.367 | 0.626 | 0.697 | 0.504 | 0.528 | 0.452 | 0.722 | 0.714 | 0.599 | 0.74 | 0.7 | 0.363 | 0.333 | 0.361 | 0.511 | 0.332 |
